Where no end group is shown, it is not given here.

Series [1] is described as follows: Stability of PT (temperature, proteases). The class given is physicochemical.
Another series deals with IL-12. The series can be described thus: ELISA of IL-12 production by splenocytes. The note with it: 48 hours, PT 0.05 μg/ml. The class given is cell-based, Balb C murine. On the procedure: Identical plates are set up for an immunoassay and a mitogen assay. Mouse splenocytes and immuno-stimulating drugs are plated in duplicate wells (immunoassay) and triplicate wells (mitogen assay) in 96-well microplates as described above. The incubation at 37° C. in a humidified 5% CO2 incubator may vary from three to five days. At the end of the activation/proliferation period, the two identical plates are harvested as an immunoassay for cytokines or harvested as a mitogen assay (to which ^3H-thymidine has been added approximately 16-18 hours earlier).
Immunoassay kits used to detect IL-1β, IL-2, and IL-12 were the murine Quantikine M™ kits produced by R&D Systems (Minneapolis, Minn.). The general procedure is the same for all interleukin cytokines, and is described in the instructions provided by the manufacturer. All reagents are used at room temperature, and are prepared according to kit instructions.
The immunoassay plate is centrifuged at 200×g to pellet all cells. A 50 μl aliquot of Assay Diluent is first added to the center of each special enzyme-coated well supplied with the kit. Next, 50 μl of standard, control or test sample of supernatant from the immunoassay incubation plate is added to each well. This is incubated at room temperatures for two hours.
Liquid is aspirated from the wells, and the wells are washed five times with surfactant diluted 1:25 with distilled water. A 100 μL aliquot of Conjugate is added to each well and incubated two hours at room temperature. […]
One hundred microliters of Substrate Solution are added to each well and incubated 30 minutes at room temperature. […] The plate is read for absorbence at 450 nm and at 540 nm for background readings.
To calculate the results, the duplicate readings for each pair of standard, control, and test samples are averaged and the average background optical density readings are subtracted. […] Picograms of cytokine are determined from the standard curve. Mitogenic activity determined from the cpm of ^3H-thymidine is compared to the concentrations of cytokine in the experimental samples in the corresponding immunoassay. […]

Series [2] deals with B16F10 melanoma tumor cells. The series can be described thus: In vivo inhibition of B16F10 melanoma tumor development. The arrangement: species or system C57BL/6NCr female mice. On the procedure: C57BL/6NCr female mice (20 g), approximately 50 days old, were shaved in the abdominal area, ear notched for identification, and, two or three days prior to receiving tumor cells, pre-injected subcutaneously with the immunostimulating drugs described.
On “day zero,” B16F10 melanoma tumor cells, cultured in αMEM medium with 10% FBS, were injected intradermally (10^5 cells in 0.1 ml) in the center of the mouse abdomen using a 26 gauge ½ inch needle. Four to five hours later, the drug treatment (as specified) was injected intradermally in a different area of the abdomen than the site of the tumor injection.
Intradermal treatments using the immunostimulatory drug (as specified) continued either every other day or on a Monday-Wednesday-Friday injection schedule. Control tumors (in mice not receiving an immunostimulatory drug) usually formed within seven to ten days. Tumors were examined by visual inspection, measured (length by width), and the area of any resulting lesion was recorded as mm^2 every five days.
Mice were euthanized by CO2 inhalation if the tumor exceeded 500 mm^2. Some experiments were terminated early if all mice in the control group were dead, but the experiments were not less than 20 days. The normal duration of an experiment was about 30 days.
Pyrularia thionin, both alone and in combination with IL-2, was effective in preventing or retarding the development of melanoma tumors when C57BL/6NCr mice were pretreated before injection with B16F10 cells, which produce melanoma tumors.

A further series concerns non-adherent human PBLs. The series can be described thus: Mitogen assay (^3H-thymidine uptake), human PBLs. The class given is cell-based. The note with it: PT 0.01 μg/ml. The source says:
Murine spleen cells or human peripheral blood lymphocytes (PBLS) were obtained aseptically as described herein for use in the mitogen assay. When murine splenocytes were used, they were first treated with red cell lysing buffer (0.17 M Tris, 0.144 NH4C1, pH 7.2), washed in RPMI-10 (standard RPMI growth medium, Sigma Chemical Co., St. Louis, Mo., supplemented with 10% fetal bovine serum) and viable cells counted using Trypan Blue exclusion. Human PBLs were isolated from blood using HISTOPAQUE™-1077, a solution of FICOLL™ and sodium diatrizoate (Sigma Chemical Co., St. Louis, Mo.), and subsequent washings with RPMI-5 (RPMI supplemented with 5% fetal bovine serum) to remove platelets. Isolated lymphocytes were resuspended in RPMI-10 and a viable cell yield determined by Trypan Blue exclusion.
Drugs and known mitogenic controls were added in triplicate to a 96-well flat bottom microplate aseptically. The culture medium was RPMI-10. Splenocytes or human-lymphocytes were added at a concentration of 3-4×10^5 cells/well, to a final volume of 200 μl/well. The assay plate was incubated at 37° C. in a 5% CO2 humidified incubator. At 48-50 hours, ^3H-thymidine was added (1 μCi/well), and the plate was harvested approximately 16-18 hours later.
Mitogen assay microplates were harvested using an Inotech plate harvester (Inotech Biosystems International, Inc., Rockville, Md.). Counts per minute (cpm) per well were measured using the Berthold-Inotech Trace 96-plate reader (Inotech AT, Wohlen, Switzerland) and/or a scintillation counter (Packard Tri-carb 2100TR, Packard Instrument Co., Meriden, Conn.). Mitogenic activity was directly determined by comparing cpm levels to controls.
To test whether PT stimulates mitogen activity, splenocytes were incubated for two days with IL-2 (50 units/ml) or KLH (20 μg/ml) in conjunction with PT in the concentrations shown. Figures represent the radioactivity counts of tritiated thymidine taken up during a subsequent 20-hour incubation period of cells incubated with tritiated thymidine in RPMI.

The next series has as its system Balb C splenocytes. The series can be described thus: Mitogen assay (^3H-thymidine uptake), murine splenocytes. The class given is cell-based. To be noted: for Cpm, standard mitogen assay: 0.1 μg/ml PT.

For “Pyrularia thionin (KSCCRNTWARNCYNVCRLPGTISREICAKKCDCKIISGTTCPSDYPK; ends and bridges not checked; also: labeled with 125I) [PT]”, in series [1] (70° C.), the “interaction with cell membranes after exposure to temperature” value is listed as “not influenced”. In addition, in series [1] (common proteases found in blood), the resistance to proteases entry is on record as “resistant to the common proteases found in blood”. The IL-12 with IL-12 (Experiment 1, KLH 10 μg/ml, control 1.5) worked out at 5.6 ± 0.3 pg/mL; with IL-12 (Experiment 2, control 21), 24 ± 0.3 pg/mL. Besides, the “development of tumors compared to mice injected with saline” value in series [2] (3 μg PT (with or without 100 units murine IL-2) sc five and two days prior to B16 cells and three times weekly thereafter) is listed as “slowed the development of tumors”. In series [2] (B16 melanoma in C57 mice, sc 3 μg PT, 100 units IL-2, 20-31 days), the “Average Tumor Size” value amounted to 191 mm^2. In addition, the “Number of Deaths” value in series [2] (B16 melanoma in C57 mice, sc 3 μg PT, 100 units IL-2, total mice 12 (IL-2), 15 (PT), 24 (PT + IL-2)) is 1. For the same substance, the “Mice w/o Tumors” value in series [2] (B16 melanoma in C57 mice, sc 3 μg PT, 100 units IL-2, total mice 12 (IL-2), 15 (PT), 24 (PT + IL-2), 20-31 days) is on record as 1. Also, the “remission of established tumors” value in series [2] (B16 melanoma, Table 2 and FIG. 2) is reported as “did not cause remission of established tumors”. Moreover, in series [2] (PT injected along with IL-2, per mouse), the “PT dose giving the best response” value amounted to 3 µg. For the same substance, in series [2] (per mouse, with IL-2), the “PT dose with little protection” value is more than 5 µg. Also, the immunogenicity result in “Immunogenicity of PT” is given as “not immunogenic”. The results for the “CPM of tritiated thymidine incorporated” value with non-adherent human PBLs (RPMI) and with non-adherent human PBLs (RPMI + IL-2 50 units/ml) were 724 ± 212 CPM and 2,584 ± 527 CPM, respectively. For the same substance, in the series on Balb C splenocytes (0.1 μg/ml (PT 20 nM; βME 40 nM)), the “stimulation of the mitogen reaction” value is “modest”. Besides, the “Cpm, standard mitogen assay” value in the series with Balb C splenocytes (GM-CSF (5 ng/ml)) was determined as 822 Cpm; in the series on Balb C splenocytes (no GM-CSF), 243 Cpm.

(Values after patent US7572436B1, “Thionin as an antineoplastic and immunostimulant” (priority 2000, dated 2009).)
